# Experimental data published in patent US20100168165A1, “METHOD OF TREATING DISEASE INVOLVING MYELIN AND/OR AXONAL LOSS” (The United States of America, as represented by the …, priority 2007, published 2010).
# Values joined by “and” are separate entries in the source; they are usually repeats but may differ in a detail not shown here. Identical values can stand only once.
# Assays:
# [1] = tested on: actively induced chronic progressive EAE; experiment: Actively induced chronic progressive EAE (MOG35-55 immunization), Tempol food from 14 days before immunization; format: in vivo, SJL mice
# Experimental: (§1) SJL mice are placed on Tempol-containing food two weeks prior to the initiation of experimental autoimmune encephalomyelitis (EAE) either by active immunization with myelin antigens or the transfer of activated encephalitogenic T cells. Animals receive bacon-flavored control food and Tempol-containing food ad libitum (Bio-Serv, Frenchtown, N.J.). The composition of the control food and Tempol-containing food is identical with exception to the addition of Tempol at a concentration of 10 mg/gram of food (Mitchell et al., Free Radic. Biol. Med., 34: 93-102 (2003)). Bacon flavored food is used to mask the taste of Tempol. All experiments with animals are carried out according to protocols approved by and on file with the National Institute of Neurological Disorders and Stoke (NINDS) Animal Care and Use Committee (ACUC).
# (§2) For the EAE induction, all animals are female, 8-10 weeks of age at time of myelin protein immunization. Animals are immunized for active EAE induction with 200 μg of MOG35-55 peptide in 4 mg/ml H37Ra Mycobacterium/IFA with 200 ng pertussis toxin delivered intraperitoneally (IP) on days 0 and 2. For passive EAE induction, SJL animals are immunized with 75 μg of PLP139-151 peptide in 1 mg/ml H37Ra Mycobacterium/IFA (Difco, Detroit, Mich.). Ten days later, axillary and inguinal lymph nodes are removed and placed into culture with 5 μg/ml of PLP139-151 peptide. After 3 days, activated T cells are counted and 2 million blasted T cells are transferred IP to each SJL recipient mouse.
# Mice are placed on control- or Tempol-containing food 14 days (T-14) prior to immunization with MOG peptide for EAE induction (day 0=date of immunization). Mice are blindly evaluated for onset of disease and clinical scores are assigned following examination as follows: 0=no clinical signs; 1=flaccid tail; 2=paresis of one or both hind legs; 3=paralysis of one or both hind legs; 4=quadriparesis or quadriparalysis; 5=moribund. The cumulative score represents the mean of the summation of single scores recorded in each mouse over days 0 (day of immunization) to day 30 post disease induction. In this study, mice that are fed Tempol generate myelin antigen-specific T cells which are unable to cause paralytic disease in immunized mice.
# [2] = tested on: passively induced chronic progressive EAE; experiment: Passively induced chronic progressive EAE (transfer of PLP139-151-activated encephalitogenic T cells); format: in vivo, SJL mice
# Experimental: as §1, §2
# Mice are placed on control- or Tempol-containing food 14 days (T-14) prior to receipt of encephalitogenic T cells (day 0=date of T cell transfer). Mice are blindly evaluated for onset of disease and clinical scores were assigned following examination as follows: 0=no clinical signs; 1=flaccid tail; 2=paresis of one or both hind legs; 3=paralysis of one or both hind legs; 4=quadriparesis or quadriparalysis; 5=moribund. The cumulative score represents the mean of the summation of single scores recorded in each mouse over days 0 (day of T cell transfer) to day 48 post disease induction. PLP-specific T cells are capable of causing severe paralytic disease in the brain and spinal cord of control fed mice, yet Tempol-fed mice are protected showing decreased incidence of disease as well as reduced severity.
# SJL animals are induced for disease by the passive transfer of encephalitogenic T cells as described in Example 1. Animals are placed on either Tempol or control feed at either (i) 2 weeks prior to transfer, (ii) at the time of transfer, or (iii) at the onset of disease.
# MOG-induced active EAE = experiment: MOG-induced active EAE, switched to Tempol feed after onset of clinical signs; format: in vivo, mice; conditions: feed switched once 60% of animals show at least grade 1; FIG. 4
# Experimental: as §2
# neurofilament H = experiment: Spinal cord neurofilament H in passive EAE animals; format: in vivo, SJL mice; set-up: cumulative disease score / peak disease score: scale not given here
# Experimental: SJL animals are induced for disease by the passive transfer of encephalitogenic T cells as described in Example 1. Animals are placed on either Tempol or control feed. The spinal cords of the animals are analyzed 90 days post transfer.
# Neurofilament staining is representative of the presence of axons. During autoimmune or demyelinating processes, the loss of neurofilament H has been associated with axonal loss.
# [3] = tested on: edema associated with inflammation and tissue damage; experiment: Spinal cord T2 relaxation times (edema) in passive EAE; format: in vivo, SJL mice
# Experimental: SJL animals are induced for disease by the passive transfer of encephalitogenic T cells as described in Example 1. Animals are placed on either Tempol or control feed. In a spinal cord histogram, T2 relaxation times typically increase due to inflammation and edema during CNS autoimmunity/disease during EAE. […] In the control-fed animals, the spinal cord T2 relaxation times shifted to higher values due to edema and inflammation.
# The average T2 relaxation times are measured for SJL passively-induced EAE animals on Tempol 2 weeks prior to T cell transfer. Five scans are collected per animal, which are pooled from: 2 control animals (10 total), 4 control-fed EAE animals (20 total), and 4 Tempol-fed EAE animals (20 total).
# inflammatory infiltrates = experiment: Inflammatory infiltrate scoring of spinal cords at peak disease, passive EAE; format: in vivo, mice; conditions: 5 animals per group, 11 cord levels, scale 1-5; FIG. 8
# Experimental: Animals induced passively for EAE with PLP-specific T cells are examined at peak disease for assessment of inflammatory infiltrates. The spinal cords from 5 animals per group (control-fed and Tempol-fed) are examined at 11 levels spanning the entire cord and assessed according to the following scale and an average inflammatory score is calculated per animal. Degree of inflammation: 1=1-2 mild infiltrates, little to no infiltration; 2=3+ infiltrates, +/− infiltration; 3=1-2 moderate infiltrates, 1-2 mild little/mild infiltrates; 4=3+ moderate infiltrates, or 1 severe/broad with or without mild infiltrates, extensive infiltration to parenchyma present; 5=2+ severe/broad parenchyma infiltrative, with or without additional mild/moderate associated infiltrates to parenchyma.
# leukocytic infiltration = experiment: Leukocyte count by flow cytometry in actively induced EAE; format: in vivo, C57BL/6J mice
# Description: Animals are placed on either Tempol or control feed, and the number of leukocytes are counted via flow cytometry.
# myelin-specific T cells = experiment: Spleen recall proliferation to myelin antigen 20 days after immunization; format: in vivo; conditions: three animals per group, pooled; FIG. 9
# Experimental: Animals on control or Tempol feed are immunized with a myelin antigen, and the spleens are tested 20 days later for recall to antigen. Three animals per group are tested and the results are pooled (FIG. 9).
# [4] = clinical score 0-5, Tempol food from T-14, n = 10
# [5] = individual animals, passive EAE
smiles,measurement,setting,value
"CC1(C)CC(O)CC(C)(C)N1[O] [Tempol, 4-hydroxy-2,2,6,6-tetramethylpiperidine-1-oxyl]",Effect on incidence and severity of EAE,[1]; Table 1 and FIG. 1,reduces the incidence and severity
same,Incidence of disease,"[1]; Tempol 10 mg/gram of food ad libitum from 14 days prior to MOG immunization, n = 10",.30
same,Average peak disease severity,[1]; [4],0.83
same,Average cumulative disease score,"[1]; clinical score 0-5 summed over day 0 to day 30, Tempol food from T-14, n = 10",2.05
same,Effect on incidence and severity of EAE,[2]; Table 2 and FIG. 2,reduces the incidence and severity
same,Incidence of disease,"[2]; Tempol 10 mg/gram of food from 14 days prior to T cell transfer, n = 10",.70
same,Average peak disease severity,[2]; [4],2.81
same,Average cumulative disease score,"[2]; clinical score 0-5 summed over day 0 to day 48, Tempol food from T-14, n = 10",33.9
same,Clinical sign at peak disease,[2]; control animals: complete hind limb paralysis with forelimb weakness,hind limb paresis
same,Severity of clinical symptoms and cumulative disease score by time of administration,"[2]; feed started 2 weeks prior to transfer, at transfer, or at disease onset, FIG. 3",reduces the severity of clinical symptoms and the cumulative disease score regardless of the time of administration
same,Time after feed administration until disease severity drops off,MOG-induced active EAE,≤ 2 days
same,cumulative disease score,neurofilament H; [5],14 and 103.25 and 83.75 and 105.25 and 28.25 and 83 and 0.5 and 87.25 and 28.75
same,peak disease score,neurofilament H; [5],2.25 (2×) and 3.5 (4×) and 2.75 and 2.5 and 0
same,average (relative amount of spinal cord neurofilament H),"neurofilament H; individual animals, spinal cords analyzed 90 days post transfer",0.9652 and 0.4487 and 0.7 and 0.3589 and 0.8499 and 0.3415 and 0.9171 and 0.9553 and 1.104
same,Preservation of neurofilament H,"neurofilament H; versus control feed, FIG. 5 and Table 3",greater preservation of neurofilament H
same,Edema and inflammation by average T2 relaxation times,"[3]; Tempol 2 weeks prior to T cell transfer, to levels observed in healthy animals, FIG. 7","limits (e.g., reduces) the edema and inflammation"
same,"T2 relaxation times, spinal cord histogram",[3]; versus control-fed EAE animals,lower T2 relaxation times
same,Inflammatory infiltrates at peak disease,inflammatory infiltrates,limits the inflammatory infiltrates
same,Inflammatory infiltrates at peak disease,"leukocytic infiltration; actively induced EAE, Table 4",limits the inflammatory infiltrates
same,Microglial activation (upregulation of MHC class II expression),leukocytic infiltration; compared to animals on control feed,reduces the degree of microglial activation
same,% B cell,"leukocytic infiltration; flow cytometry, peak disease",1.3% and 2.8%
same,% CD3,"leukocytic infiltration; flow cytometry, peak disease",11.1% and 11.2%
same,% mac/gran,"leukocytic infiltration; flow cytometry, peak disease",10.1% and 20.2%
same,% microglia,"leukocytic infiltration; flow cytometry, peak disease",68.5% and 55.6%
same,% total CD45 hi,"leukocytic infiltration; flow cytometry, peak disease",21.0% and 33.8%
same,CD4:CD8 ratio,"leukocytic infiltration; flow cytometry, peak disease",1.7 and 1.5
same,Cell #,"leukocytic infiltration; flow cytometry, peak disease",1.0 ×10^6
same,Generation of myelin-specific T cells by proliferative responses,myelin-specific T cells,does not reduce the generation of myelin-specific T cells
